Measurements from patent publication US10174035B2, “6-morpholinyl-2-pyrazolyl-9H-purine derivatives and their use as PI3K inhibitors” (Daiichi Sankyo Company, Limited, priority 2015, dated 2019).
Where two headings read alike, the source gives them in different places.

Tests used:
[1] = system: IFN-γ release in mouse splenocytes; test: Phytohaemagglutinin (PHA)-induced interferon (IFN)-gamma release in mouse splenocytes; design: species or system C57BL/6 mouse; settings: Splenocyte, PHA (10 μg/ml) for 48 hours, IFN-γ by ELISA, read-out: Cell Based IC50
Protocol: Effect of compounds on mitogen-induced IFN-γ release in mouse splenocytes was used to evaluate their potency in cell-based assay system [Blood (2010) 115: 2203-2213; Current Protocols in Immunology (2004) 3.12.1-3.12.20].
Mouse splenocytes were obtained from the spleen of a C57BL/6 mouse and plated at a density of 0.25 million cells/well in a 96 well tissue culture plate. The effect of the compounds to inhibit IFN-γ release was evaluated by treating the splenocytes with various concentrations of the test compounds followed by stimulation with PHA (10 μg/ml) for 48 hours. The IFN-γ release in the cell culture supernatant was quantified by ELISA as per the manufacturer's protocol (BD Biosciences, #555138).

[2] = target: recombinant PI3K δ enzyme (Homo sapiens (Human), UniProt O00329); test: In vitro enzyme assay (Kinase-Glo luminescent kinase assay), PI3Kδ; format: biochemical
Chain of recombinant PI3K δ enzyme (O00329 whole entry, species assumed, canonical isoform): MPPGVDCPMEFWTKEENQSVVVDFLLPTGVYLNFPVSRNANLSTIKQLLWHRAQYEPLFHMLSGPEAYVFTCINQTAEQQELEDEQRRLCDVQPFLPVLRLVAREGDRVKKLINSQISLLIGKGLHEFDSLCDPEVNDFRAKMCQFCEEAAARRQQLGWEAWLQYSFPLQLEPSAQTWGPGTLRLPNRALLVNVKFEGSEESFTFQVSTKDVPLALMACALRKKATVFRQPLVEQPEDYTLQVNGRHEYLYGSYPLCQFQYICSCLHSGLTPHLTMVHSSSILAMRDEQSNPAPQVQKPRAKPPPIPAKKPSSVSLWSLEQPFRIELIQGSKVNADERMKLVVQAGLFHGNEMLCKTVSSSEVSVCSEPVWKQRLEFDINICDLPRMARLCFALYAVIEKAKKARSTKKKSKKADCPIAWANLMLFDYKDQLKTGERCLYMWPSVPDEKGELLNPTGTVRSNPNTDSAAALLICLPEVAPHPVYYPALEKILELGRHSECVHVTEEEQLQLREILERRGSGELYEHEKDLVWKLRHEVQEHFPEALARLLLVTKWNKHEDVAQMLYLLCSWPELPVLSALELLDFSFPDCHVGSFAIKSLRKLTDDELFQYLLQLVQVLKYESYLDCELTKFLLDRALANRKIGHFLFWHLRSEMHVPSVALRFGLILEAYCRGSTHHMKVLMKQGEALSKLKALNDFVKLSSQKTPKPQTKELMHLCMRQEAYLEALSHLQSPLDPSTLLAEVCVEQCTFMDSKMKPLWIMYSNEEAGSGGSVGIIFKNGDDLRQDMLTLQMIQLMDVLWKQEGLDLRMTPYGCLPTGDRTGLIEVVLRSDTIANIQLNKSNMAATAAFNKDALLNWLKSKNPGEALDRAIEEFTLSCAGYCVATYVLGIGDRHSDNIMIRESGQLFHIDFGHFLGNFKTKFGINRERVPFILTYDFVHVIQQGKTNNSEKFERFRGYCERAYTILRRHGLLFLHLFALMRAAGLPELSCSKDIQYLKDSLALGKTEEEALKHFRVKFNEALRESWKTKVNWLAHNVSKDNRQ
Chain of recombinant PI3K δ enzyme (P27986 whole entry partner, species assumed, canonical isoform): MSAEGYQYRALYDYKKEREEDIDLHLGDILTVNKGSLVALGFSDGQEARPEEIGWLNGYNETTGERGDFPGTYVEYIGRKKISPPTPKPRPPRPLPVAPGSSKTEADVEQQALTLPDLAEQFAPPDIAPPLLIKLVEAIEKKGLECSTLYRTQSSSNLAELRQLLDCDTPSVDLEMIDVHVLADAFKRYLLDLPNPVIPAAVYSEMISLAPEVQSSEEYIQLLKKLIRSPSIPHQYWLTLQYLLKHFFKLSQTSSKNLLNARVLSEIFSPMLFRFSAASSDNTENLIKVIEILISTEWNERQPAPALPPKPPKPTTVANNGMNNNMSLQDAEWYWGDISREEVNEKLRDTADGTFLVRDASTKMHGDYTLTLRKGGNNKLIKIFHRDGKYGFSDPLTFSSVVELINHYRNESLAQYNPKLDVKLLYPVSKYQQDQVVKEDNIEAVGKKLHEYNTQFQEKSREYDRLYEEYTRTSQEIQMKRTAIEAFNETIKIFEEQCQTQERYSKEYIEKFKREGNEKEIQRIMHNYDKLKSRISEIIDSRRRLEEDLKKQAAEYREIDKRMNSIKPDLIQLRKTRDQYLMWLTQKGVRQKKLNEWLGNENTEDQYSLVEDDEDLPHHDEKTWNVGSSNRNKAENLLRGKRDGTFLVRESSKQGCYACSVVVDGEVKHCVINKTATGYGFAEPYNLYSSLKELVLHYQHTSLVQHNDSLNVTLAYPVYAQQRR
Procedure, shortened: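 Each recombinant human PI3K isoform at 2.29 μg/mL with 60 μM PIP2 and 10 μM ATP in HEPES pH 7.4, NaCl, CHAPS, MgCl2, DTT, 2 hours at room temperature. Remaining ATP read by Kinase-Glo luminescence relative to no-enzyme blanks.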

PI3Kγ = PI3Kγ (Homo sapiens (Human), UniProt P48736); test: In vitro enzyme assay (Kinase-Glo), selectivity, PI3Kγ; format: biochemical; settings: enzyme 2.29 μg/mL; ATP 10 μM; PIP2 60 μM; 2 hours
Chain of PI3Kγ (P48736 whole entry, species assumed): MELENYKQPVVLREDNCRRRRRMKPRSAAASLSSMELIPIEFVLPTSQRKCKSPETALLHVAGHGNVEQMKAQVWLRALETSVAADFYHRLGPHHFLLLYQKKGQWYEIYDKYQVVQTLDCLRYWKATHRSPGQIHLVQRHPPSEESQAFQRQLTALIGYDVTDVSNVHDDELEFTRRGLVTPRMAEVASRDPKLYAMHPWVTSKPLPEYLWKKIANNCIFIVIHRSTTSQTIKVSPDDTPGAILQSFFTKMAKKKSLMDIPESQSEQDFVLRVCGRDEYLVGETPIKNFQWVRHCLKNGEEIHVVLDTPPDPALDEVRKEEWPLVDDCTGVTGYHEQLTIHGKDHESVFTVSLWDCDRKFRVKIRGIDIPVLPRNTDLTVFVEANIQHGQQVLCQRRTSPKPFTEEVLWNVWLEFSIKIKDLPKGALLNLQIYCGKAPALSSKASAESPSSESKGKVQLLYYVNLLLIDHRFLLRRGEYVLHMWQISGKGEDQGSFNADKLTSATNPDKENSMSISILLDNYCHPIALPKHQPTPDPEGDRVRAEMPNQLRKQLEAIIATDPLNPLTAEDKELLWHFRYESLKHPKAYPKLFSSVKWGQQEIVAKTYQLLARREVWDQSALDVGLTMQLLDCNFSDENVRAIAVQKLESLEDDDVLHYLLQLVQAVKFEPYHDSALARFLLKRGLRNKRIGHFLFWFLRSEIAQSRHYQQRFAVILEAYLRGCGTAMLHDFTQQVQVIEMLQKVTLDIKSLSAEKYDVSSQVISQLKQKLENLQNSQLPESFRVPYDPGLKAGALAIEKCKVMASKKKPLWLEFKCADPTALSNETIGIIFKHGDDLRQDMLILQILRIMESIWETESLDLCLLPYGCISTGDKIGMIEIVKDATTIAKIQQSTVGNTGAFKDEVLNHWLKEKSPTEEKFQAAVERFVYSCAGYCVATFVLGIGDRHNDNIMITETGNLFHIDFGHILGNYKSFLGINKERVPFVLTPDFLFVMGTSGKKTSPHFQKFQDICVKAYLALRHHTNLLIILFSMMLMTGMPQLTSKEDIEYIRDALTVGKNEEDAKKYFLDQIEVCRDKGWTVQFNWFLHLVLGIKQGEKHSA
Protocol: The Kinase-Glo luminescent kinase assay kit (from Promega) was used to measure kinase activity. In this assay, amount of ATP remaining in solution following a kinase reaction is measured. […] The reaction mixture was incubated for 2 hours at room temperature. At the end of incubation period the equal volume of Kinase-Glo plus (Promega, V3772), was added per well and the luminescence was measured after incubating for 10 minutes at room temperature in dark. Results were calculated by measuring the luminescence units of test samples to blanks containing no enzyme.
(§1) The compounds of the present invention were tested for their selectivity for PI3Kδ over PI3Kα, PI3Kβ and PI3Kγ following the above assay using specific recombinant enzymes (Proteros, Germany) for each kinase. Assay condition of kinase assay (PI3Kα, PI3Kβ, PI3Kγ and PI3Kδ) was as follows.

PI3Kα = PI3Kα (Homo sapiens (Human), UniProt P42336); test: In vitro enzyme assay (Kinase-Glo), selectivity, PI3Kα; format: biochemical; settings: enzyme 2.29 μg/mL; ATP 10 μM; PIP2 60 μM; 2 hours
Chain of PI3Kα (P42336 whole entry, species assumed): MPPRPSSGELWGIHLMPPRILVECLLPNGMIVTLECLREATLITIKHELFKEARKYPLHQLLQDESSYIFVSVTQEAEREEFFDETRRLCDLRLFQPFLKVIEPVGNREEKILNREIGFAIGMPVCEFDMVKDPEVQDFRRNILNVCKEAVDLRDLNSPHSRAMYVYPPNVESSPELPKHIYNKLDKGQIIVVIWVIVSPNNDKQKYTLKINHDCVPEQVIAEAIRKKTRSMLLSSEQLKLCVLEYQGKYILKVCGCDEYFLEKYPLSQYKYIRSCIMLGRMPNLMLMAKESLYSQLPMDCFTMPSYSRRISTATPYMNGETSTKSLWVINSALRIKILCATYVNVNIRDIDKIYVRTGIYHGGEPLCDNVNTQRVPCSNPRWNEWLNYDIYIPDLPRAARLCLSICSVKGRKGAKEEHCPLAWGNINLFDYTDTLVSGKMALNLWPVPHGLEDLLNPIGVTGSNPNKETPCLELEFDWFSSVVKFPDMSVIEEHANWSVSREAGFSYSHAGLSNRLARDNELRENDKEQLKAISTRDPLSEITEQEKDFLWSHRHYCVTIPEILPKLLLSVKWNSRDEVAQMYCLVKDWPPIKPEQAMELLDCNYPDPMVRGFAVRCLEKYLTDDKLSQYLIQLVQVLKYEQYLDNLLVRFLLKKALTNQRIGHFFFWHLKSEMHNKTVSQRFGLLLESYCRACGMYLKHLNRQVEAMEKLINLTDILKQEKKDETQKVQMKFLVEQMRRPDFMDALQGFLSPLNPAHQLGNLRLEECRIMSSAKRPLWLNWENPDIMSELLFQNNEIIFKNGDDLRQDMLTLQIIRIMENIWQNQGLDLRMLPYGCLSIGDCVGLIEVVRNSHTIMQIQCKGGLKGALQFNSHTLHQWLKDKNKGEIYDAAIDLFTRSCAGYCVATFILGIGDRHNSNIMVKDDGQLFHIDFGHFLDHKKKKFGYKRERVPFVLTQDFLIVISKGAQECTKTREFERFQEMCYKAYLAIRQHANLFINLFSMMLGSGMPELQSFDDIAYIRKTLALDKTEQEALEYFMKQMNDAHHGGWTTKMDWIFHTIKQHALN
Chain of PI3Kα (P27986 whole entry partner, species assumed): as the sequence (P27986 whole entry partner, species assumed, canonical isoform) above
Protocol: (§2) The Kinase-Glo luminescent kinase assay kit (from Promega) was used to measure kinase activity. In this assay, amount of ATP remaining in solution following a kinase reaction is measured. The effect of compounds on PI3Kδ inhibition was carried out by adding 2.29 μg/ml of recombinant PI3K δ enzyme (Proteros, Germany) to reaction mixture containing assay buffer (50 mM HEPES, pH 7.4, 50 mM NaCl, 0.05% CHAPS) supplemented with 10 mM MgCl2, 5 mM DTT, 60 μM Phosphatidyl inositol bisphosphate (PIP2) and 10 μM ATP in the absence or presence of different concentrations of the compounds in a final volume of 15 μl/well, in a 384 well plate. The reaction mixture was incubated for 2 hours at room temperature. At the end of incubation period the equal volume of Kinase-Glo plus (Promega, V3772), was added per well and the luminescence was measured after incubating for 10 minutes at room temperature in dark. Results were calculated by measuring the luminescence units of test samples to blanks containing no enzyme.
as §1, with “follows. Enzyme: 2.29 μg/mL; ATP: 10 μM; PIP2 substrate: 60 μM and Reaction Time: 2 hours.” for “follows.”

PI3Kβ = PI3Kβ (Homo sapiens (Human), UniProt P42338); test: In vitro enzyme assay (Kinase-Glo), selectivity, PI3Kβ; format: biochemical; settings: enzyme 2.29 μg/mL; ATP 10 μM; PIP2 60 μM; 2 hours
Chain of PI3Kβ (P42338 whole entry, species assumed): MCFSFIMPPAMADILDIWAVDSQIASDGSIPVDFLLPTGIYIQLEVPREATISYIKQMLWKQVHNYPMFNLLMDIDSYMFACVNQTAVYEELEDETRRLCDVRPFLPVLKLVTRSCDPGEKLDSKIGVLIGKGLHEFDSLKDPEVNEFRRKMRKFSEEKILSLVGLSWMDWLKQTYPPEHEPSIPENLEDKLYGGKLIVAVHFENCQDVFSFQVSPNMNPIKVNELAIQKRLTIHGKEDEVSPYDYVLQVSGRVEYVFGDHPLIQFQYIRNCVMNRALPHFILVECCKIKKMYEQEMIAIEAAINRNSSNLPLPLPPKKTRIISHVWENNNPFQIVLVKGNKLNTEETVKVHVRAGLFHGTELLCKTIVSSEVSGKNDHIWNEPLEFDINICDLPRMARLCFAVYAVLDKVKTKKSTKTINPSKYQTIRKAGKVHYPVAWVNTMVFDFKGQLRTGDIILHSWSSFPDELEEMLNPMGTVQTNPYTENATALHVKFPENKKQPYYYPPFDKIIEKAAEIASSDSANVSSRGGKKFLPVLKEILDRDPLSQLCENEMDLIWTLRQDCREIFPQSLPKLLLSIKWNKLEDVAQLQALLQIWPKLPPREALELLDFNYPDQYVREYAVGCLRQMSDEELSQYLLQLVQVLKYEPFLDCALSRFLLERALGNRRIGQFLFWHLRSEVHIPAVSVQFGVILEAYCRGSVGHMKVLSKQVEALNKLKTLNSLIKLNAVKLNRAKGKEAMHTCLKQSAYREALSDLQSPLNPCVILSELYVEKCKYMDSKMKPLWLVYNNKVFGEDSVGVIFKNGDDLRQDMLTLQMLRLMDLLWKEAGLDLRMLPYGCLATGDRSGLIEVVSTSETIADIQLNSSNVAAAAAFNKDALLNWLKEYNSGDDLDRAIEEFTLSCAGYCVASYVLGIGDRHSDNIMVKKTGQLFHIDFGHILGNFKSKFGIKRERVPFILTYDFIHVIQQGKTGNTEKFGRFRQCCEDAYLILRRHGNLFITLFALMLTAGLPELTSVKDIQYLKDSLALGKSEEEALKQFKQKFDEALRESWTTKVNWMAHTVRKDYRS
Chain of PI3Kβ (P27986 whole entry partner, species assumed): as the sequence (P27986 whole entry partner, species assumed, canonical isoform) above
Protocol: as §2
as §1, with “follows. Enzyme: 2.29 μg/mL; ATP: 10 μM; PIP2 substrate: 60 μM and Reaction Time: 2 hours.” for “follows.”

SMILES | IC50 [2] [nM] | other results
Cc1nn(C)cc1-c1nc(N2CCOCC2)c2nc(C(=O)N3CCN(C(C)(C)C(N)=O)CC3)[nH]c2n1 [compound 8, 2-(4-{[2-(1,3-Dimethyl-1H-pyrazol-4-yl)-6-(morpholin-4-yl)-9H-purin-8-yl]carbonyl}piperazin-1-yl)-2-methylpropanamide] | 10 | IC50 [1]: 422 nM; IC50 ([2]; enzyme 2.29 μg/mL, ATP 10 μM, PIP2 60 μM, 2 hours): 10 nM; IC50 (PI3Kγ): 6540 nM; IC50 (PI3Kα): 6480 nM; IC50 (PI3Kβ): > 1000 nM
Cn1cc(-c2nc(N3CCOCC3)c3nc(C(=O)N4CCN(C(C)(C)C(N)=O)CC4)[nH]c3n2)cn1 [compound 10, 2-Methyl-2-(4-{[2-(1-methyl-1H-pyrazol-4-yl)-6-(morpholin-4-yl)-9H-purin-8-yl]carbonyl}piperazin-1-yl)propanamide] | – | IC50 [1]: 270 nM
C[C@@H]1CN(C2CCN(C(=O)c3nc4c(N5CCOCC5)nc(-c5cn[nH]c5)nc4[nH]3)CC2)C[C@H](C)O1 [compound 65, {4-[cis-2,6-Dimethylmorpholin-4-yl]piperidin-1-yl}[6-(morpholin-4-yl)-2-(1H-pyrazol-4-yl)-9H-purin-8-yl]methanone] | – | IC50 [1]: 79 nM; IC50 (PI3Kγ): 9770 nM; IC50 (PI3Kα): 986 nM; IC50 (PI3Kβ): > 10000 nM
Cc1nn(C)cc1-c1nc2c(nc(C(=O)N3CCC(N4C[C@@H](C)O[C@@H](C)C4)CC3)n2C)c(N2CCOCC2)c1F [compound 112, {4-[cis-2,6-Dimethylmorpholin-4-yl]piperidin-1-yl}[5-(1,3-dimethyl-1H-pyrazol-4-yl)-6-fluoro-3-methyl-7-(morpholin-4-yl)-3H-imidazo[4,5-b]pyridin-2-yl]methanone] | 15 | –
Cc1nn(C)cc1-c1cc(N2CCOCC2)c2nc(C(=O)N3CCC(N4C[C@@H](C)O[C@@H](C)C4)CC3)[nH]c2n1 [compound 113, {4-[cis-2,6-Dimethylmorpholin-4-yl]piperidin-1-yl}[5-(1,3-dimethyl-1H-pyrazol-4-yl)-7-(morpholin-4-yl)-3H-imidazo[4,5-b]pyridin-2-yl]methanone] | – | IC50 [1]: 7 nM; IC50 (PI3Kγ): > 1000 nM; IC50 (PI3Kα): > 1000 nM; IC50 (PI3Kβ): 1150 nM
Cc1nn(C)cc1-c1cc(N2CCOCC2)c2nc(C(=O)N3CCC(N4C[C@@H](C)O[C@@H](C)C4)CC3)n(C)c2n1 [compound 114, {4-[cis-2,6-Dimethylmorpholin-4-yl]piperidin-1-yl}[5-(1,3-dimethyl-1H-pyrazol-4-yl)-3-methyl-7-(morpholin-4-yl)-3H-imidazo[4,5-b]pyridin-2-yl]methanone] | 72 | –
Cn1cc(-c2cc(N3CCOCC3)c3nc(C(=O)NCCCN4CCOCC4)[nH]c3n2)cn1 [compound 115, 5-(1-Methyl-1H-pyrazol-4-yl)-7-(morpholin-4-yl)-N-[3-(morpholin-4-yl)propyl]-3H-imidazo[4,5-b]pyridine-2-carboxamide] | 16 | –
Cn1cc(-c2cc(N3CCOCC3)c3nc(C(=O)NCCCN4CCCC4=O)[nH]c3n2)cn1 [compound 116, 5-(1-Methyl-1H-pyrazol-4-yl)-7-(morpholin-4-yl)-N-[3-(2-oxopyrrolidin-1-yl)propyl]-3H-imidazo[4,5-b]pyridine-2-carboxamide] | – | IC50 [1]: 72 nM
Cn1cc(-c2cc(N3CCOCC3)c3nc(C(=O)N4CCC(C(C)(C)O)CC4)[nH]c3n2)cn1 [compound 117, [4-(2-Hydroxypropan-2-yl)piperidin-1-yl][5-(1-methyl-1H-pyrazol-4-yl)-7-(morpholin-4-yl)-3H-imidazo[4,5-b]pyridin-2-yl]methanone] | 122 | –
C[C@@H]1CN(C2CCN(C(=O)c3nc4c(N5CCOCC5)cc(-c5cn[nH]c5)nc4[nH]3)CC2)C[C@H](C)O1 [compound 118, {4-[cis-2,6-Dimethylmorpholin-4-yl]piperidin-1-yl}[7-(morpholin-4-yl)-5-(1H-pyrazol-4-yl)-3H-imidazo[4,5-b]pyridin-2-yl]methanone] | 50 | –
Cn1cc(-c2cc(N3CCOCC3)c3nc(C(=O)N4CC(N5CCOCC5)C4)[nH]c3n2)cn1 [compound 120, [5-(1-Methyl-1H-pyrazol-4-yl)-7-(morpholin-4-yl)-3H-imidazo[4,5-b]pyridin-2-yl][3-(morpholin-4-yl)azetidin-1-yl]methanone] | 10 | –
Cn1cc(-c2nc(N3CCOCC3)c3nc(C(=O)N4CCC5(CC4)CNC(=O)C5)[nH]c3n2)cn1 [compound 122, 8-{[2-(1-Methyl-1H-pyrazol-4-yl)-6-(morpholin-4-yl)-9H-purin-8-yl]carbonyl}-2,8-diazaspiro[4.5]decan-3-one] | 20 | –

Continued, in another order:

IC50 [2] [nM] | SMILES | other results
4 | O=C(c1nc2c(N3CCOCC3)c(F)c(-c3c[nH]nc3C(F)(F)F)nc2[nH]1)N1CCC(N2CCOCC2)CC1 [compound 123, {6-Fluoro-7-(morpholin-4-yl)-5-[3-(trifluoromethyl)-1H-pyrazol-4-yl]-3H-imidazo[4,5-b]pyridin-2-yl}[4-(morpholin-4-yl)piperidin-1-yl]methanone] | –
17 | Cn1cc(-c2nc3[nH]c(C(=O)NCCCN4CCOCC4)nc3c(N3CCOCC3)c2F)cn1 [compound 124, 6-Fluoro-5-(1-methyl-1H-pyrazol-4-yl)-7-(morpholin-4-yl)-N-[3-(morpholin-4-yl)propyl]-3H-imidazo[4,5-b]pyridine-2-carboxamide] | –
43 | O=C(c1nc2c(N3CCOCC3)c(F)c(-c3cn[nH]c3)nc2[nH]1)N1CCC(N2CCOCC2)CC1 [compound 125, [6-Fluoro-7-(morpholin-4-yl)-5-(1H-pyrazol-4-yl)-3H-imidazo[4,5-b]pyridin-2-yl][4-(morpholin-4-yl)piperidin-1-yl]methanone] | –
25 | Cn1cc(-c2nc3[nH]c(C(=O)N4CC(N5CCOCC5)C4)nc3c(N3CCOCC3)c2F)cn1 [compound 126, [6-Fluoro-5-(1-methyl-1H-pyrazol-4-yl)-7-(morpholin-4-yl)-3H-imidazo[4,5-b]pyridin-2-yl][3-(morpholin-4-yl)azetidin-1-yl]methanone] | –
36 | C[C@@H]1CN(C2CN(C(=O)c3nc4c(N5CCOCC5)c(F)c(-c5cnn(C)c5)nc4[nH]3)C2)C[C@H](C)O1 [compound 127, {3-[(2R,6S)-2,6-dimethylmorpholin-4-yl]azetidin-1-yl}[6-fluoro-5-(1-methyl-1H-pyrazol-4-yl)-7-(morpholin-4-yl)-3H-imidazo[4,5-b]pyridin-2-yl]methanone] | –
240 | CN(C(=O)c1nc2c(N3CCOCC3)nc(-c3cnn(C)c3)nc2[nH]1)C1CCN(C2COC2)CC1 [compound 132, N-Methyl-2-(1-methyl-1H-pyrazol-4-yl)-6-(morpholin-4-yl)-N-[1-(oxetan-3-yl)piperidin-4-yl]-9H-purine-8-carboxamide] | –
19 | O=C(c1nc2c(N3CCOCC3)cc(-c3cn[nH]c3)nc2[nH]1)N1CCC(N2CCOCC2)CC1 [compound 133, [4-(Morpholin-4-yl)piperidin-1-yl][7-(morpholin-4-yl)-5-(1H-pyrazol-4-yl)-3H-imidazo[4,5-b]pyridin-2-yl]methanone] | –
3 | O=C(c1nc2c(N3CCOCC3)cc(-c3c[nH]nc3C(F)(F)F)nc2[nH]1)N1CCC(N2CCOCC2)CC1 [compound 134, [4-(Morpholin-4-yl)piperidin-1-yl]{7-(morpholin-4-yl)-5-[3-(trifluoromethyl)-1H-pyrazol-4-yl]-3H-imidazo[4,5-b]pyridin-2-yl}methanone] | –
19 | Cn1cc(-c2cc(N3CCOCC3)c3nc(C(=O)N4CCN(C5CCOCC5)CC4)[nH]c3n2)cn1 [compound 135, [5-(1-Methyl-1H-pyrazol-4-yl)-7-(morpholin-4-yl)-3H-imidazo[4,5-b]pyridin-2-yl][4-(tetrahydro-2H-pyran-4-yl)piperazin-1-yl]methanone] | –
